Experiment [1] concerns prekallikrein activating factor (PK activation). As to the kind of experiment: Inhibition profile of PK activation (prekallikrein activation assay, kallikrein substrate S-2302, O.D. 405 nm). It is filed as biochemical, human. From the text: In embodiments of the invention the reaction time may be fixed or “set.” The reaction time can be “set” by stopping the production of kallikrein, for example, by adding a prekallikrein activation inhibitor to the system of the present invention after a desired reaction time. Also, by adding a coloring or fluorescent synthetic substrate to the reaction system from the start or beginning, the produced amount of kallikrein (coloring or fluorescent intensity) may be observed at different lapses of time. […] When the reaction is stopped, the produced kallikrein can be quantitatively determined using an enzymatic activity of kallikrein as a target, for example, by applying a substrate to kallikrein.
When the reaction is stopped, the produced plasma kallikrein can be determined using an enzymatic activity of the plasma kallikrein as a target by utilizing a substrate to the plasma kallikrein.
(§1) Assays were performed in HEPES buffered saline (HBS) (10 mM Hepes, 137 mM NaCl, 4 mM KCl, 11 mM D-glucose, and 0.5 mg/ml RIA grade bovine serum albumin, pH 7.4), with a kallikrein specific substrate (0.6 mM S-2302). For assays using the cell-free system, 96 well disposable polystyrene microtiter plates (Dynatech Laboratories, Chantilly, Va.) were used. These microtiter plates were pretreated with 1% polyethylene glycol (Aquacide III, Calbiochem, Calif.) in HBS for two hours to prevent adsorption of proteins to polystyrene. The absorbance (O.D. at 405 nm or optical density at 405 nm) was monitored at room temperature on a Molecular Devices (Sunnyvale, Calif.) THERMOmax microplate reader. Just prior to the assay all the proteins were treated with 2.0 mM (4-amidinophenyl)methanesulfonyl fluoride (APMSF) for 15 minutes at pH 5.5, after which they were diluted 1:100 with HBS and incubated for 45 minutes to allow for the decomposition of any unreacted APMSF at the neutral pH. The proteins were treated with APMSF before use and were inactivated for the sake of safety.

For experiment [2], the system named is HSP 90-dependent prekallikrein activation. As to the kind of experiment: HSP 90-dependent prekallikrein activation (HSP 90, HK, zinc, PK, S-2302). It is filed as biochemical, human. Conditions: purified HSP 90 activator, HK and zinc present. As to the method: as §1
HSP 90 was confirmed as a prekallikrein activator, which was functionally indistinguishable from the cytosolic extract (FIG. 2). A HUVEC activator system was functionally effective as well (FIG. 1). […] The incubation mixture used is as follows: […]

The subject of experiment [3] is activation of prekallikrein in the presence of phosphate and zinc ions. Description: Prekallikrein activation by phosphate ion (PBS, zinc, HK, PK, S-2302). The settings on record: phosphate ion activator, no FXIIa, HUVEC or HSP 90. It is filed as biochemical. As to the method: as §1, with “safety. […]” for “safety.”

“Also recorded” adds a separate entry of the source. Where two headings read alike, the source gives them in different places.

Turning to Cystatin, in experiment [1] (inhibitor concentration 10 μg/ml), the “% inhibition of PK activation” value is listed as 4.5%.
As for `OCCS` [Mercaptoethanol], in experiment [1], the “inhibition of the prekallikrein activator in this system (in words)” value (“inhibition … in this system (in words)” for short) is on record as “good inhibitors”. Further, the “% inhibition of PK activation” value in experiment [1] (inhibitor concentration 5%) came to 85.5%.
Take `N[C@@H](CS)C(=O)O` [Cysteine]: the “% inhibition of PK activation” value in experiment [1] (inhibitor concentration 10 mM) worked out at 59.6%.
Still for that read-out and setting: for `NC(=O)CI` [Iodoacetamide] the value was 7%.
Take `CC(C)Cc1ccc(C(C)C(=O)O)cc1` (stereo not shown) [Ibuprofen]: the “inhibition of HSP 90-dependent prekallikrein activation (in words)” value in experiment [2] was “inhibited by Ibuprofen dose-dependently”. Further, the “inhibition of prekallikrein activation in the presence of phosphate and zinc ions (in words)” value in experiment [3] is “inhibited by Ibuprofen dose-dependently”.
As for `[Cl][Hg][Cl]` [HgCl2], the “inhibition … in this system (in words)” value in experiment [1] was “good inhibitors”. Besides, the “% inhibition of PK activation” value in experiment [1] (inhibitor concentration 1 mM) amounted to 98%.
Regarding Aprotinin, in experiment [1], the “inhibition … in this system (in words)” value is “good inhibitors”. The “% inhibition of PK activation” value in experiment [1] (inhibitor concentration 100 μM) worked out at 96.4%.
With `O[C@@H](CS)[C@@H](O)CS` [DTT], the “% inhibition of PK activation” value in experiment [1] (inhibitor concentration 10 mM) was found to be 69.1%.
As for `N[C@@H](CCC(=O)N[C@@H](CS)C(=O)NCC(=O)O)C(=O)O` [Glutathione], the “% inhibition of PK activation” value in experiment [1] (inhibitor concentration 100 μM) is on record as 18.6%.
For the molecule `O=C(O)CN(CCN(CC(=O)O)CC(=O)O)CC(=O)O` [EDTA], in experiment [1], the “% inhibition of PK activation” value was 85.4% and the “inhibition … in this system (in words)” value was “good inhibitors”.
In the case of `C[C@H](CS)C(=O)N1CCC[C@H]1C(=O)O` [Captopril], in experiment [1], the “inhibition … in this system (in words)” value is on record as “good inhibitors”. Also, in experiment [1] (inhibitor concentration 10 mM), the “% inhibition of PK activation” value is reported as 97.9%.
Take Corn Trypsin Inhibitor: in experiment [1] (inhibitor concentration 10 μM), the “% inhibition of PK activation” value came to 94.3%. Further, in experiment [1] (listed as CTI), the “inhibition … in this system (in words)” value was “good inhibitors; also recorded: could be inhibited by CTI”. Further, the “inhibition of HSP 90-dependent prekallikrein activation (in words)” value in experiment [2] was “inhibited by CTI”.

B1: SBTI: soybean trypsin inhibitor (SBTI) (protein, UniProt P01070 25-205, looked up)
Trypsin inhibitor A: DFVLDNEGNPLENGGTYYILSDITAFGGIRAAPTGNERCPLTVVQSRNELDKGIGTIISSPYRIRFIAEGHPLSLKFDSFAVIMLCVGIPTEWSVVEDLPEGPAVKIGENKDAMDGWFRLERVSDDEFNNYKLVFCPQQAEDDKCGDIGISIDHDDGTRRLVVSKNKPLVVQFQKLDKESL
In the case of B1, the “inhibition … in this system (in words)” value in experiment [1] is reported as “good inhibitors”. In addition, the “% inhibition of PK activation” value in experiment [1] (inhibitor concentration 50 μg/ml) was found to be 98.6%.

The values are drawn from US6913900B2, “Plasma prekallikrein activation and kallikrein production assay” (Nippon Zoki Pharmaceutical Co., Ltd., priority 2001, dated 2005).
